The text below walks through data of patent US10799597B2, “Subcutaneous administration of antibody-drug conjugates for cancer therapy” (Immunomedics, Inc., priority 2017, dated 2020).

Some results are limits rather than exact numbers.

One data set has as its system Calu-3. As to the kind of experiment: Signaling events (p21Waf1/Cip1, p53) in Calu-3 cells. Type of data set: cell-based, human. An excerpt:
(§1) SN-38 is known to activate several signaling pathways in cells, leading to apoptosis (e.g., Cusack et al., 2001, Cancer Res 61:3535-40; Liu et al. 2009, Cancer Lett 274:47-53; Lagadec et al., 2008, Br J Cancer 98:335-44). Our initial studies examined the expression of 2 proteins involved in early signaling events (p21^Waf1/Cip1 and p53) and 1 late apoptotic event [cleavage of poly-ADP-ribose polymerase (PARP)] in vitro (not shown).

A further data set relates to MDA-MB-468. The data set is described as follows: MTS cytotoxicity assay, MDA-MB-468. Type of data set: cell-based, human. The settings on record: Example 5, 96 h.
In the next data set the test system is BxPC-3. The data set is described as follows: Signaling events (p21Waf1/Cip1, p53) in BxPC-3 cells. Type of data set: cell-based, human.
Description: as §1

Data set [1] has as its system SK-MES-1 human squamous cell lung tumors. The data set is described as follows: Therapy of SK-MES-1 tumor xenografts in nude mice. The settings on record: hA20 ADC equal dose; irinotecan at MTD (q2dx5).
The test system of data set [2] is COLO 205 colonic adenocarcinoma xenografts.
Data set [3] deals with Calu-3 non-small cell lung carcinoma xenografts. The data set is described as follows: Therapy of Calu-3 tumor xenografts in nude mice. Type of data set: in vivo, athymic nude mice. As to conditions: 0.4 mg/kg SN-38 q4dx4. As for the experimental part: FIG. 4A. […] Mice bearing Calu-3 tumors (N=5-7) were injected with hRS7-CL2-SN-38 every 4 days for a total of 4 injections (q4dx4).

The next data set in a line: FIG. 3A. The protocol:
Table printed on a drawing sheet, FIG. 3A
Footnotes: CL2-SN-38: AA = Phe / CL2A-SN-38: AA = None
The patent's description of the figure: FIG. 3A. Structures of CL2-SN-38 and CL2A-SN-38.
FIG. 3C. […] Capan-1 mice (N=10) were treated with 0.2 mg/kg ADC and tumors measured weekly.

Data set [4] has as its system Capan-1 pancreatic adenocarcinoma xenografts. The data set is described as follows: Therapy of Capan-1 tumor xenografts in nude mice. Type of data set: in vivo, athymic nude mice. The settings on record: 0.2 mg/kg SN-38 twice weekly×4 weeks. The protocol:
FIG. 3C. […] Animals were treated twice weekly for 4 weeks as indicated by the arrows. Capan-1 mice (N=10) were treated with 0.2 mg/kg ADC and tumors measured weekly.
FIG. 4C. […] Capan-1 (N=10) were treated twice weekly for 4 weeks with the agents indicated.

A short description of data set [5]: Tolerability in Cynomolgus monkeys. Type of data set: in vivo, Cynomolgus monkeys (Macaca fascicularis). The protocol:
FIG. 5C. Tolerability of hRS7-CL2A-SN-38 in Cynomolgus monkeys. […] All animals were bled on day −1, 3, and 6. Four monkeys were bled on day 11 in the 0.96 mg/kg group, 3 in the 1.92 mg/kg group. Changes in neutrophil counts in Cynomolgus monkeys.
FIG. 5D. Tolerability of hRS7-CL2A-SN-38 in Cynomolgus monkeys. […] All animals were bled on day −1, 3, and 6. Four monkeys were bled on day 11 in the 0.96 mg/kg group, 3 in the 1.92 mg/kg group. Changes in platelet counts in Cynomolgus monkeys.

The subject of data set [6] is diverse metastatic cancers. The data set is described as follows: Phase I/II clinical trial of IMMU-132 (Example 9): best response and TTP.
Data set [7] in a line: Body weight loss in the murine therapy studies. As to conditions: all murine studies. Type of data set: in vivo, mice.
The nature of data set [8]: Pharmacokinetics of MAb vs. ADC (IMMU-130) in mice. Type of data set: in vivo. The protocol: Experiments were conducted in female athymic nude mice, 4 weeks or older, bearing s.c. LS174T human colon carcinoma xenografts of (˜0.2 cm^3 size), or 2 weeks after lung metastases were generated by i.v. injection of GW-39 human colon carcinoma cells. Untreated controls, including a non-targeting ADC, were included. […] Tolerability studies were conducted in white New Zealand rabbits.

Where [9] appears, read: esophageal cancer, 4 assessable patients.

With `CCc1c2c(nc3ccc(O)cc13)-c1cc3c(c(=O)n1C2)COC(=O)[C@]3(O)CC` [SN-38, reference compound], the “time of p53 upregulation” value in the data set with Calu-3 and with BxPC-3 was 48 h in each case. The same compound came in with a 50% inhibitory concentration (IC50) in the data set on MDA-MB-468 of 1.54 nM.
For the compound `CCc1c2c(nc3ccc(OC(=O)N4CCC(N5CCCCC5)CC4)cc13)-c1cc3c(c(=O)n1C2)COC(=O)[C@]3(O)CC` [irinotecan, reference compound], the “antitumor effect relative to the specific conjugate” value in data set [1] is reported as “provided the same antitumor effects as the specific hRS7-SN-38 conjugate”. For the same compound, the “effectiveness of the MTD of irinotecan” value in data set [2] (24 mg SN-38/kg, q2dx5) is reported as “as effective as hRS7-CL2-SN-38”.
With `CC(=O)O[C@H]1C(=O)[C@@]2(C)[C@H]([C@H](OC(=O)c3ccccc3)[C@]3(O)C[C@H](OC(=O)[C@H](O)[C@@H](NC(=O)c4ccccc4)c4ccccc4)C(C)=C1C3(C)C)[C@]1(OC(C)=O)CO[C@@H]1C[C@@H]2O` [paclitaxel], the IC50 in the data set with MDA-MB-468 (Homo sapiens, MDA-MB-468) was < 0.061 nM.
With hLL2-CL2-SN-38 [reference compound], the tumor outcome in [3] is listed as “tumors regrew”.
Turning to hRS7 IgG, the “time of p53 upregulation” value in the data set on Calu-3 and in the data set with BxPC-3 was 48 h each time.
hRS7-CL2-SN-38 [listing 1 of 2 here]: the “HUMAN SERUM HALF-LIFE” value in the data set “FIG. 3A” turned out to be 22.1 h.
Turning to hRS7-CL2-SN-38 [listing 2 of 2 here], the “tumor growth vs. saline and hA20-CL2A-SN-38” value in data set [4] is “significantly inhibited tumor growth”. The “mice tumor-free at the end of the study” value in data set [4] (day 140) came to 40%. Moreover, in data set [2] (0.4 mg/kg SN-38 twice weekly×4 weeks), the “tumor growth vs. saline and hA20-CL2A-SN-38” value is reported as “significantly inhibited tumor growth”. In addition, in [3], the “time by which all mice were cured” value is reported as ≤ 28 days and the tumor outcome is “remained tumor-free until the end of the study on day 147”.
In the case of hRS7-CL2A-SN-38, in “FIG. 3A”, the “HUMAN SERUM HALF-LIFE” value worked out at 20.3 h.
In the case of hRS7-SN-38, the “tolerated cumulative human equivalent dose” value in data set [5] (cynomolgus monkey, in vivo) was 22 mg/m^2. The tolerated dose in data set [5] (mild and reversible toxicity) came to 0.96 mg/kg/dose. Further, the extrapolated human dose in data set [5] (per dose) is on record as ~11 mg/m^2. Further, the “reduction in target lesions” value in [6] (CRC patient, 8 mg/kg, first CT assessment) is listed as 37%. In addition, the “maximum reduction in target lesions” value in data set [6] (CRC patient, after 10 months of treatment) worked out at 65%. Besides, the “Best Response: PD, number of patients” value is given as 6 in data set [6] (CRC, 18 assessable patients); 1 in [6] (NSCLC, 5 assessable patients); 2 in data set [6] (SCLC, 4 assessable patients); 2 in [6] (TNBC, 8 assessable patients); 14 in data set [6] (all patients, 48 assessable); 1 in [6] (setting [9]). Besides, the “Best Response: PR, number of patients” value in data set [6] (CRC, 18 assessable patients) was found to be 1; in data set [6] (NSCLC, 5 assessable patients), 1; in data set [6] (SCLC, 4 assessable patients), 2; in data set [6] (TNBC, 8 assessable patients), 2; in data set [6] (all patients, 48 assessable) it was 7; in data set [6] (setting [9]) it was 1. The “Best Response: SD, number of patients” value is recorded as 11 in data set [6] (CRC, 18 assessable patients); 3 in data set [6] (NSCLC, 5 assessable patients); 0 in data set [6] (SCLC, 4 assessable patients); 4 in [6] (TNBC, 8 assessable patients); 27 in data set [6] (all patients, 48 assessable); 2 in data set [6] (setting [9]). In addition, the “tolerability in terms of body weight loss” value in data set [7] was “well tolerated”.
On to labetuzumab, for which the “half-life longer for MAb vs. ADC” value in data set [8] is ~25%.

In general, IC50 refers to the concentration needed to halve the response being measured. Low readings indicate higher potency, high ones lower potency.
